Data as given in patent US6610502B1, “Compound 2-amino-3-[2-(α-mannopyranosyl)indol-3-yl]propionic acid, process for preparing the same, and method for inspecting function of living body with the novel compound” (Kyowa Medex Co., Ltd., priority 1997, dated 2003).
Values joined by “and” are separate entries in the source; they are usually repeats but may differ in a detail not shown here. Equal values may be shown once.

Legend:
[1] = test system: monoclonal antibody specifically reactive with 2-amino-3-[2-(α-mannopyranosyl)indole-3-yl]propionic acid; test: Confirming the specificity of the monoclonal antibody (competitive enzyme immunoassay, absorbance at 660 nm); type: binding, mouse; conditions: test samples at concentrations not more than 100 μg/ml; plate coated with BSA conjugate
Method: First, 50 μl of 2-amino-3-[2-(α-D-mannopyranosyl)indole-3-yl]propionic acid-BSA conjugate solution (20 μg/ml, 0.1M carbonate buffer, pH9.5) was dispensed into a 96-well microtiter plate (available from NUNC) and left to stand at 4° C. overnight. After washing the plate with PBS (×3), 250 μl of 1% BSA/PBS solution was dispensed into the plate and left to stand at room temperature for 1 hour. Then, the plate was washed with PBS (×3) to be used as a reaction plate. Next, 50 μl of 0.1M phosphate buffer (pH 7.4) containing varied concentrations of test sample/0.1% BSA was dispensed into the reaction plate into which 50 μl of the monoclonal antibody prepared in e. Purifying the antibodies above (0.1M phosphate buffer containing l10 ng/ml 0.1% BSA, pH7.4) was added while stirring. The mixture was allowed to react at room temperature for 3 hours. After the reaction was completed, the plate was washed with PBS containing 0.05% Tween 20 (5×), and then 50 μl of POD labeled-anti-mouse immunoglobulins-rabbit IgG (DAKO) was added to the plate for reaction at room temperature for 1 hour. […] Finally, 50 μl of reaction stopper (ethyldiethyldithiocarbamate) was added to the plate of which absorbance was then determined at 660 nm by a microplate reader.

[2] = GFR assay, comparative example: creatinine in the same samples by enzymatic assay kit, clearance (Example 8); type: in vivo, human
[3] = Assay of excreted amount in urine, comparative example: creatinine by enzymatic assay kit (Example 9); type: in vivo, human; conditions: healthy persons

Structure (SMILES) | decrease in the absorbance (reaction with the antibody) [1] | creatinine in serum ([2]; Average of 18 subjects) | creatinine in urine ([2]; Average of 18 subjects) | creatinine in serum ([2]; individual subjects 1-18, patients with non-renal disease) | creatinine in urine ([2]; individual subjects 1-18, urine stored for 24 hours) | excreted amount in urine, average ([3]; female, age 0-10) | excreted amount in urine, average ([3]; female, age 0-90) | excreted amount in urine, average ([3]; female, age 10-30) | excreted amount in urine, average ([3]; female, age 30-50) | excreted amount in urine, average ([3]; female, age 50-70) | excreted amount in urine, average ([3]; female, age 70-90) | excreted amount in urine, average ([3]; male, age 0-10) | excreted amount in urine, average ([3]; male, age 0-90) | excreted amount in urine, average ([3]; male, age 10-30) | excreted amount in urine, average ([3]; male, age 50-70) | excreted amount in urine, average ([3]; male, age 70-90)
O=C[C@@H](O)[C@@H](O)[C@H](O)[C@H](O)CO (racemic) [DL-mannose] | no decrease |  |  |  |  |  |  |  |  |  |  |  |  |  |  | 
N[C@@H](Cc1c[nH]c2ccccc12)C(=O)O [L-tryptophan] | no decrease |  |  |  |  |  |  |  |  |  |  |  |  |  |  | 
CN1CC(=O)NC1=N [creatinine] |  | 0.65 mg/dL | 72.12 mg/dL | 0.61 mg/dl and 0.80 mg/dl (3×) and 0.50 mg/dl and 0.40 mg/dl (3×) and 0.70 mg/dl (4×) and 0.56 mg/dl and 0.72 mg/dl and 0.63 mg/dl and 0.64 mg/dl and 0.71 mg/dl and 0.84 mg/dl | 50.1 mg/dL and 48.9 mg/dL and 21.2 mg/dL and 51.9 mg/dL and 30.5 mg/dL and 70.2 mg/dL and 32.0 mg/dL and 74.1 mg/dL and 48.2 mg/dL and 138.8 mg/dL and 46.5 mg/dL and 100.2 mg/dL and 63.5 mg/dL and 142.0 mg/dL and 88.0 mg/dL and 69.9 mg/dL and 183.1 mg/dL and 39.0 mg/dL | 245 mg/day | 559 mg/day | 609 mg/day | 742 mg/day | 684 mg/day | 515 mg/day | 387 mg/day | 833 mg/day | 1066 mg/day | 893 mg/day | 599 mg/day
